# “And” between values parts separate entries of the source, which are not always exact repeats. Identical values can stand only once. Like-named read-outs stand apart in the source and are kept apart here.
# Experiments:
# [1] = tested on: WBCs; experiment: Immobilization of cells: recovery rate of cells on SA (streptavidin) plate or untreated plate (Example 3); type: cell-based
# Experimental: The following applies for modular description of the compounds below: X=hydrophobic moiety, […]=fluorescein In the following experiment, the recovery rate of cells was determined.
# [2] = tested on: white blood cells (WBCs)
# Experimental: In particular, the performance of a single cholesterol-molecule and different dual-linker molecules (i.e. containing two hydrophobic moieties) was tested. In detail, immobilization of white blood cells (WBCs) on a Streptavidin-coated surface using different linker molecules was tested on a 12-well plate: 300 000 WBCs/well. This was followed by the measurement of the cell recovery rate after immobilization and washing of the cells using the Cellavista instrument (10× Nuclei Operator s9s5).
# [3] = tested on: Epithelial cells; experiment: Labelling of cells using compounds (staining/uptake); type: cell-based
# Text: (§1) 2. Labelling of Cells Using Compounds Useful in Methods of the Invention
# [4] = tested on: MDA-MB468; experiment: as above; type: cell-based
# Text: as §1
# [5] = tested on: U937; experiment: as above; type: cell-based
# Text: as §1
# [6] = tested on: WBCs; experiment: as above; type: cell-based
# Text: as §1
# [7] = tested on: WBC; experiment: WBC recovery rate after centrifugation (cell stabilization, Example 5); type: cell-based; settings: 300×g; for WBC recovery rate after centrifugation at different points of time, dependence on concentration: 0.35 nmol molecule A, 100 nmol and 0.5 nmol molecule B
# Experimental: A) WBC Recovery Rate after Centrifugation and Cell Immobilization Using Different Molecules
# Centrifugation characteristics: 10 min, 300×g.
# B) WBC Recovery Rate after Centrifugation Using Different Compounds—Different Points of Time
# Centrifugation characteristics: 10 min, 300×g. A: Choleseryl-TEG-Cholesteryl-TEG-(SpacerC18)7-Fluos-Biotin-TEG.
# C) WBC Recovery Rate after Centrifugation—Different Experimenters
# Centrifugation characteristics: 10 min, 300×g. Molecule: Cholesteryl-TEG-Cholesteryl-TEG-(SpacerC18)7-Fluos-Biotin-TEG.
# D) WBC Recovery Rate after Centrifugation—Different Points of Time and Centrifugation Settings
# Centrifugation characteristics: 20 min, 300×g.
# [8] = tested on: Hela; experiment: Labelling of cells using compounds (staining/uptake); type: cell-based
# Text: as §1
# [9] = Sample 1, first block (concentration not given), 300 000 WBCs/well
# [10] = Sample 1, compound concentration: 1 nmol/10e6 WBCs
# [11] = Sample 1, compound concentration: 1 nmol/10e6 WBCs, 300 000 WBCs/well
# [12] = Sample 2, compound concentration: 100 pmol/10e6 WBCs
# [13] = Sample 2, compound concentration: 100 pmol/10e6 WBCs, 300 000 WBCs/well
# [14] = Sample 2, compound concentration: 1 nmol/10e6 WBCs
# [15] = Sample 2, compound concentration: 1 nmol/10e6 WBCs, 300 000 WBCs/well
# [16] = cells treated with compound, streptavidin plate, repeated experiments
compound,measurement,setting,value
CCCCCCCC/C=C\CCCCCCCC(=O)OC[C@H](COP(=O)([O-])OCCNC(=O)CCCCCNC(=O)CCCC[C@@H]1SC[C@@H]2NC(=O)N[C@@H]21)OC(=O)CCCCCCC/C=C\CCCCCCCC.[Na+],Recovery Rate,[1]; 10 pmol/10e6 cells,66.30% and 74.40%
same,Recovery Rate,[1]; 500 pmol/10e6 cells,80.16% and 95.94%
same,Recovery Rate,[1]; 1 nmol/10e6 cells,95.80% and 101.76%
same,Recovery Rate,[1]; 10 nmol/10e6 cells,89.19% and 105.12%
CCCCCCCCCCCCCCCC(=O)OC[C@H](COP(=O)([O-])OCCNC(=O)CCCCCNC(=O)CCCC[C@@H]1SC[C@@H]2NC(=O)N[C@@H]21)OC(=O)CCCCCCCCCCCCCCC.[Na+],Recovery Rate,[1]; 10 pmol/10e6 cells,54.30% and 45.40%
same,Recovery Rate,[1]; 100 pmol/10e6 cells,72.20% and 86.10%
same,Recovery Rate,[1]; 300 pmol/10e6 cells,51.80% and 55.90% and 52.60% and 73.07% and 61.27% and 71.40%
same,Recovery Rate,[1]; 1 nmol/10e6 cells,84.90% and 89.30%
5′-(Cholesterol-TEG)1-Doubler-dT-Biotin-3′ [29.891272],Recovery Rate,[1]; 10 pmol/10e6 cells,65.03%
same,Recovery Rate,[1]; 100 pmol/10e6 cells,83.08% and 56.49% and 62.11% and 82.01%
same,Recovery Rate,[1]; 1 nmol/10e6 cells,87.93% and 72.13% and 82.47%
same,Recovery Rate,[1]; 10 nmol/10e6 cells,Cells lysed
same,Recovery Rate,[2]; [9],56.49%
same,cells counted per well,[2]; [9],147132 and 179643 and 181620
same,Recovery Rate,[2]; [10],72.13%
same,cells counted per well,[2]; [11],199973 and 220701 and 228481
same,Mean (cells counted per well),[2]; [12],186316.33
same,Recovery Rate,[2]; [12],62.11%
same,cells counted per well,[2]; [13],161504 and 201424 and 196021
same,Mean (cells counted per well),[2]; [14],247418.33
same,Recovery Rate,[2]; [14],82.47%
same,cells counted per well,[2]; [15],241232 and 254894 and 246129
same,"cell immobilization characteristics, mono linker vs dual linker",[2]; conclusion of Example 4,shows similar cell immobilization characteristics compared dual linker molecules
5′-(Cholesteryl-TEG)2-PEG2000-Fluos-Biotin_TEG-3′ INVERS [29.891250],Recovery Rate,[1]; 100 pmol/10e6 cells,48.66%
same,Recovery Rate,[1]; 1 nmol/10e6 cells,81.29%
5′-(Cholesteryl-TEG)2-Spacer C12-dT-Biotin_TEG-3′ INVERS [29.891253],Recovery Rate,[1]; 10 pmol/10e6 cells,47.42%
same,Recovery Rate,[1]; 100 pmol/10e6 cells,73.46% and 41.44% and 62.59% and 71.41%
same,Recovery Rate,[1]; 1 nmol/10e6 cells,96.84% and 72.13% and 79.02% and 86.21%
same,Recovery Rate,[1]; 10 nmol/10e6 cells,102.36%
same,Recovery Rate,[2]; [9],41.44%
same,cells counted per well,[2]; [9],105061 and 128195 and 139678
same,Recovery Rate,[2]; [10],72.13%
same,cells counted per well,[2]; [11],218861 and 221471 and 208802
same,Mean (cells counted per well),[2]; [12],187757.67
same,Recovery Rate,[2]; [12],62.59%
same,cells counted per well,[2]; [13],178919 and 197130 and 187224
same,Mean (cells counted per well),[2]; [14],237052.33
same,Recovery Rate,[2]; [14],79.02%
same,cells counted per well,[2]; [15],239105 and 240632 and 231420
5′-Cholesteryl-TEG-PEG2000-Fluos-3′ [29.891132],Labelling (staining/uptake) of cells,[3],✓
same,Labelling (staining/uptake) of cells,[4],✓
same,Labelling (staining/uptake) of cells,[5],✓
same,Labelling (staining/uptake) of cells,[6],✓ not all
5′-CholesterylTEG-CholesterylTEG-(SpacerC18)7-Fluos-BiotinTEG-3′ [29.891222],"WBC recovery rate after centrifugation, different experimenters, dependence on concentration",[7]; Centrifugation: 10 min,"the higher the molecule concentration, the higher the cell recovery rate after centrifugation"
same,"WBC recovery rate after centrifugation at different points of time, dependence on concentration",[7]; Centrifugation: 10 min,"The higher the molecule concentration, the higher the cell recovery rate after centrifugation"
same,"cell stabilization, dependence on experimenter","[7]; Experimenters 1, 2 and 3, 10 min",cell stabilization is independent on the experimenter
5′-CholesterylTEG-CholesterylTEG-PEG2000-BiotinTEG-3′ [29.891137],Recovery Rate,"[1]; WBCs, concentration not given",77.1%
5′-CholesterylTEG-SpacerC12-CholesterylTEG-(SpacerC18)7-Fluos-BiotinTEG-3 [29.891224],Recovery Rate,"[1]; WBCs, 350 pmol/10e6 cells",119.4% and 60.6% and 64.4% and 70.3% and 78.1%
5′-CholesterylTEG-SpacerC18-CholesterylTEG-(SpacerC18)7-Fluos-BiotinTEG-3′ [29.891225],Recovery Rate,"[1]; WBCs, 350 pmol/10e6 cells",38.8% and 46.5%
5′-Myristic acid-CholesterylTEG-(SpacerC18)7-Fluos-BiotinTEG-3′ [29.891227],Recovery Rate,"[1]; WBCs, 350 pmol/10e6 cells",64.9% and 69.6% and 77.8%
5′-Myristic acid-Myristic acid-(SpacerC18)7-Fluos-BiotinTEG-3′ [29.891214],Recovery Rate,"[1]; WBCs, 350 pmol/10e6 cells",78.9% and 68.7% and 90.5% and 81.1% and 65.9% and 84.9% and 85.1%
same,Recovery rate treated cells (SA-plate),[1]; [16],78.9%
5′-Myristic acid-Myristic acid-Myristic acid-(SpacerC18)7-Fluos-BiotinTEG-3′ [29.891221],Recovery Rate,"[1]; WBCs, 350 pmol/10e6 cells",46.0% and 79.4% and 68.8% and 76.5% and 83.4%
5′-Myristic acid-Myristic acid-PEG2000-Fluos-BiotinTEG-3′ [29.891194],Recovery Rate,"[1]; WBCs, 350 pmol/10e6 cells",21-26%
5′-Myristic acid-Myristic acid-SpacerC18-Fluos-BiotinTEG-3′ [29.891213],Recovery Rate,"[1]; WBCs, 350 pmol/10e6 cells",67.4% and 61.9% and 80.2% and 70.4%
same,Recovery rate treated cells (SA-plate),[1]; [16],67.4%
5′-Myristic acid-SpacerC9-Myristic acid-(SpacerC18)7-Fluos-BiotinTEG-3′ [29.891218],Recovery Rate,"[1]; WBCs, 350 pmol/10e6 cells",50.3% and 55.1%
5′-Myristic acid-SpacerC9-Myristic acid-PEG2000-Fluos-BiotinTEG-3′ [29.891197],staining,[6]; remark in the Recovery Rate column,not good
5′-Myristic acid-SpacerC12-Myristic acid-(SpacerC18)7-Fluos-BiotinTEG-3 [29.891219],Recovery Rate,"[1]; WBCs, 350 pmol/10e6 cells",46.3% and 39.4% and 53.7% and 56.6%
5′-Myristic acid-SpacerC18-Myristic acid-(SpacerC18)7-Fluos-BiotinTEG-3′ [29.891220],Recovery Rate,"[1]; WBCs, 350 pmol/10e6 cells",35.8% and 41.4% and 55.9% and 63.5%
5′-alphaTocopherolTEG-PEG2000-Fluos-3′ [29.891131],Labelling (staining/uptake) of cells,[3],✓
same,Labelling (staining/uptake) of cells,[4],✓
same,Labelling (staining/uptake) of cells,[5],✓
same,Labelling (staining/uptake) of cells,[6],✓ not all
CCCCCCCCCCCCCCCCCCCCCCN1/C(=C/C=C/c2oc3ccccc3[n+]2CCC)Oc2ccccc21.[I-] [PKH2],Labelling (staining/uptake) of cells,[3],✓ not all
"CCCCCCCCCCCCCCCC(=O)OC[C@H](COP(=O)(O)OCCNC(=O)CCc1ccc2n1[B-](F)(F)[N+]1=C(C)C=C(C)C1=C2)OC(=O)CCCCCCCCCCCCCCC.CCN(CC)CC [Phosphatidylethanolamine, N-(4,4-difluoro-5,7-dimethyl-4-bora-3a,4a-diaza-s-indacene-3-propionyl)-1,2-dihexadecanoyl-sn-glycero-3-phosphoethanolamine, triethylammonium salt]",Labelling (staining/uptake) of cells,[8],x/✓ very weak
Biotin-PEG-Lys-(C14)2 [15.260268],Recovery Rate,[1]; 1.77 nmol/10e6 Cells,85.72
same,Recovery rate treated cells (SA-plate),[1]; 2.16 μg/2 × 10e6 WBCs,39.6%
same,Recovery rate treated cells (SA-plate),[1]; 21.6 μg/2 × 10e6 WBCs,46.7%
same,Recovery rate treated cells (SA-plate),[1]; 216 μg/2 × 10e6 WBCs,51.8%
same,Recovery Rate,"[1]; WBCs, concentration not given",52-86%
Biotin-PEG-Lysin-(C18)2 [listing 1 of 2 here],enables cell immobilization within,[7]; Centrifugation: 10 min,≤ 3.5 h
same,"WBC recovery rate after centrifugation at different points of time, dependence on concentration",[7]; Centrifugation: 10 min,"The higher the molecule concentration, the higher the cell recovery rate after centrifugation"
Biotin-PEG-Lysin-(C18)2 [listing 2 of 2 here],Recovery Rate,[1]; 10 pmol/10e6 cells,4.8%
same,Recovery Rate,[1]; 100 pmol/10e6 cells,6.8%
same,Recovery Rate,[1]; 1 nmol/10e6 cells,21.8% and 29.6%
same,Recovery Rate,[1]; 10 nmol/10e6 cells,60.6% and 43.0% and 68.5%
same,Recovery Rate,"[1]; WBCs, 350 pmol/10e6 cells, 0.00003% Tween22",15.0%
same,Recovery Rate,"[1]; WBCs, 350 pmol/10e6 cells, 0.0001% Tween21",10.0%
same,Recovery Rate,"[1]; WBCs, 350 pmol/10e6 cells, 0.0003% Tween20",10.0%
same,Recovery Rate,"[1]; WBCs, 350 pmol/10e6 cells, 0.001% Tween20",9.0%
same,Recovery Rate,"[1]; WBCs, 0.5 nmol/10e6 cells",25.0% and 27.0% and 38.0%
same,Recovery Rate,"[1]; WBCs, 50 nmol/10e6 cells",69.0%
Biotin-PEG-Lysin-(C18)2 [HH1749],"WBC recovery rate after centrifugation, dependence on concentration",[7]; Centrifugation: 10 min,"The higher the concentration of the molecule, the higher the cell recovery rate after centrifugation"
Biotin-PEG-Lysin-(C18)2 [HH1750],"WBC recovery rate after centrifugation, dependence on concentration",[7]; Centrifugation: 10 min,"The higher the concentration of the molecule, the higher the cell recovery rate after centrifugation"
Biotin-PEG-Lysin-(C18)2 [HH1755],"WBC recovery rate after centrifugation, dependence on concentration",[7]; Centrifugation: 10 min,"The higher the concentration of the molecule, the higher the cell recovery rate after centrifugation"
Sulfo-JA133-phenylboronic acid [15.000078],Labelling (staining/uptake) of cells,[3],✓
same,Labelling (staining/uptake) of cells,[6],✓ not all

# From patent US11965886B2, “Method of immobilizing a cell on a support using compounds comprising a polyethylene glycol moiety” (Roche Diagnostics Operations, Inc., priority 2013, dated 2024)
